Assay results published in the supplement of paper PMC10307832.

Legend:
Test in all cases: relative viability (nuclei count vs DMSO), 5 days (fraction); higher = more cells survive
Navitoclax = compound: CC1(C)CCC(c2ccc(Cl)cc2)=C(CN2CCN(c3ccc(C(=O)NS(=O)(=O)c4ccc(N[C@H](CCN5CCOCC5)CSc5ccccc5)c(S(=O)(=O)C(F)(F)F)c4)cc3)CC2)C1 [Navitoclax]
Summary of the method: (§1)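 Viability was read as treated-well nuclei divided by vehicle-well nuclei, using the median across plates. Lung cancer cell lines in 1536-well plates were kept overnight at 37 °C, pinned with five √10-spaced library-drug doses, and after 5 days were Hoechst-stained, imaged at 4× and counted in MetaXpress. Plates passed only with control CV below 25% and at least one doubling.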

C-75 = compound: CCCCCCCC[C@H]1[C@@H](C(=C)C(=O)O1)C(=O)O [C-75]
Summary of the method: as §1

AZD7762 = compound: NC(=O)Nc1cc(-c2cccc(F)c2)sc1C(=O)N[C@H]1CCCNC1 [AZD7762]
Summary of the method: as §1

[1] = compound: O=C(O)c1ccc(-c2c[nH]c3ncc(-c4ccccc4)cc23)cc1C1CCCC1
Summary of the method: as §1

XAV939 = compound: Oc1nc(-c2ccc(C(F)(F)F)cc2)nc2c1CSCC2 [XAV939]
Summary of the method: as §1

Cell Line | relative viability (Navitoclax; 0.005 µM) | relative viability (Navitoclax; 0.01581 µM) | relative viability (Navitoclax; 0.05 µM) | relative viability (Navitoclax; 0.1581 µM) | relative viability (Navitoclax; 0.5 µM) | relative viability (Navitoclax; 0.5 µM, anchor plate) | relative viability (C-75; 0.08 µM) | relative viability (C-75; 0.253 µM) | relative viability (C-75; 0.8 µM) | relative viability (C-75; 2.53 µM) | relative viability (C-75; 8 µM) | relative viability (AZD7762; 0.01 µM) | relative viability (AZD7762; 0.03162 µM) | relative viability (AZD7762; 0.1 µM) | relative viability (AZD7762; 0.2 µM, anchor plate) | relative viability (AZD7762; 0.3162 µM) | relative viability (AZD7762; 1 µM) | relative viability ([1]; 0.04 µM) | relative viability ([1]; 0.1265 µM) | relative viability ([1]; 0.4 µM) | relative viability ([1]; 1.265 µM) | relative viability (XAV939; 0.08 µM) | relative viability (XAV939; 0.253 µM) | relative viability (XAV939; 0.8 µM) | relative viability (XAV939; 2.53 µM)
NCI-H1993 | 0.925 | 1.23 | 0.913 | 0.947 | 0.949 | 1.04 | 1.09 | 1.07 | 0.888 | 0.855 | 0.903 | 0.96 | 0.984 | 0.957 | 0.828 | 1.11 | 0.819 | 0.979 | 1.02 | 0.946 | 0.877 | 0.841 | 0.693 | 0.782 | 0.827
NCI-H2228 | 0.965 | 1.01 |  | 0.968 | 1.11 | 0.968 | 0.969 | 1.09 | 0.952 | 0.986 | 1.06 | 1.17 | 0.982 | 0.997 |  | 0.649 | 0.361 | 0.942 | 1.09 | 0.924 | 0.639 | 1.01 | 0.811 | 0.921 | 0.88
EMC-BAC-2 | 0.924 | 1.02 | 0.981 | 0.932 | 0.976 | 1.16 | 0.959 | 0.952 | 0.908 | 0.828 | 0.921 | 1.05 | 1.02 | 1.05 | 1.17 | 0.995 | 0.975 | 0.993 | 1.04 | 0.974 | 0.899 | 1.01 | 0.969 | 0.869 | 0.655
EKVX | 1.03 | 1.28 | 0.87 | 0.969 | 0.915 | 0.954 | 0.971 | 0.967 | 0.847 |  | 1.02 | 0.947 | 1.03 | 0.929 | 0.696 | 0.962 | 0.8 | 0.962 | 1.14 | 1.01 | 0.865 | 1.04 | 0.852 | 0.833 | 0.694
NCI-H2170 | 1.02 | 1.06 | 1.06 | 0.935 | 0.748 | 0.636 | 0.984 | 0.94 | 0.943 | 0.913 | 0.954 | 1 | 1.01 | 1.02 | 0.858 | 0.989 | 0.972 | 1.01 | 1 | 0.937 | 0.904 | 0.937 | 0.886 | 0.939 | 0.785
NCI-H2085 | 1.01 | 1.14 | 0.93 | 1.01 | 1.05 | 1.12 | 1.04 | 0.974 | 0.988 | 0.866 | 0.975 | 1.03 | 0.992 | 1.08 | 0.973 | 1.05 | 0.864 | 0.932 | 1.04 | 0.956 | 0.933 | 1.05 | 0.893 | 0.902 | 0.891
LCLC-97TM1 | 0.966 | 1.06 | 0.915 | 0.94 | 1.02 | 0.502 | 0.963 | 1.09 | 0.95 | 0.813 | 0.622 | 1.05 | 0.98 | 1.11 | 0.281 | 0.926 | 0.588 | 1.04 | 0.957 | 0.98 | 0.901 | 0.975 | 0.764 | 0.879 | 0.944
